One assay addresses T1, rTAAR8c (Rattus norvegicus, UniProt Q923Y0).
T1 construct: Full Taar coding regions were cloned into pcDNA3.1; expressed in transfected cells; host or cells: HEK293
T1 sequence (Q923Y0 1-344): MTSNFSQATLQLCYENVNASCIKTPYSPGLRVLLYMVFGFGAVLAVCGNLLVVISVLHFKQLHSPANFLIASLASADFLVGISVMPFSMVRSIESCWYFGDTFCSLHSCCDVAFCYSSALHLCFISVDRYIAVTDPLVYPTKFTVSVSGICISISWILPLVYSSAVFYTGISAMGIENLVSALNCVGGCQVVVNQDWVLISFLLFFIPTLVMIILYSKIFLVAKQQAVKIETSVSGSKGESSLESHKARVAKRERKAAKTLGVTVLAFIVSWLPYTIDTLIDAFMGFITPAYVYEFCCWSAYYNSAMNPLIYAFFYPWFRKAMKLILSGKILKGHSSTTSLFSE
As to the kind of experiment: CRE-SEAP reporter gene assay in HEK293 cells transfected with rTAAR8c. In kind it is cell-based. Particulars: FIG. 11A, functional with or without 'Rho tag', EC50 ± s.e.m., 4-parameter Hill equation. On the procedure:
(§1) FIG. 11 illustrates the dose-dependent responses of TAARs to amines. HEK293 cells were cotransfected with plasmids encoding CRE-SEAP and rTAARs (a) or mTAARs (b), incubated with concentrations of ligands indicated, and assayed for reporter activity (triplicates±s.d.). EC50 values (±s.e.m, bottom right) were calculated using SigmaPlot (Systat Software) and a 4-parameter Hill equation.
(§2) The following mixes (10 μM of each indicated compounds) were tested for their ability to activate rat TAARs. Mix 1: butylamine, dibutylamine, hexylamine. Mix 2: 2-aminopentane, isoamylamine, isobutylamine, isopropylamine. Mix 3: N,N-dimethylcyclohexylamine, 1-methylindole, tryptamine, phenylethylamine. Mix 4: indole, 1-methylpyrrolidine, 1-methylpiperidine, pyrrolidine. […]
(§3) Full Taar coding regions were cloned into pcDNA3.1-(Invitrogen) with or without a 5′ DNA extension of 69 bp encoding the first 20 amino acids of bovine rhodopsin followed by a cloning linker ([…]). […] Fluorescence was measured on an EnVision plate reader (Perkin Elmer) and SEAP activity graphed as relative fluorescence of a phosphatase substrate.
(§4) Here, we set out to identify agonists for additional mouse and rat TAARs. […] Transfected cells were incubated with test chemicals, and phosphatase activity was quantified with a fluorescent substrate as a reporter for TAAR activation. […]

The target in the next assay is T2, rTAAR9 (Rattus norvegicus, UniProt Q923Y6).
T2 construct: Full Taar coding regions were cloned into pcDNA3.1; expressed in transfected cells; host or cells: HEK293
T2 sequence (Q923Y6 1-338): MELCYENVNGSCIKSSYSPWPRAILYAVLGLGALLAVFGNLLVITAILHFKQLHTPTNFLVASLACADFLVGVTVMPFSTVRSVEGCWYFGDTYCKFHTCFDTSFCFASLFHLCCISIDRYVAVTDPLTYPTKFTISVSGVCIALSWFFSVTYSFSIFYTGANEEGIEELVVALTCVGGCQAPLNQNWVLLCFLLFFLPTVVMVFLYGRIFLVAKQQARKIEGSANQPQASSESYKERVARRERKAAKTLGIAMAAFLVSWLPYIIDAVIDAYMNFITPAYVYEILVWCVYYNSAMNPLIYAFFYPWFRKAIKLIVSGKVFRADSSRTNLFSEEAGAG
Description: CRE-SEAP reporter gene assay in HEK293 cells transfected with rTAAR9. In kind it is cell-based. Particulars: FIG. 11A, functional with or without 'Rho tag', EC50 ± s.e.m., 4-parameter Hill equation. On the procedure: as §1, §2, §3, §4
(In a reporter assay the amount or activity of a reporter protein is the signal.)

Assay [1] concerns mouse olfactory sensory neurons. Description: Confocal calcium imaging of olfactory sensory neurons in tissue slices. Particulars: dorsal olfactory epithelium. Format: cell-based. The method, then: The mammalian olfactory system encodes odor identity using combinations of olfactory receptors (11). […] Here, we used a confocal imaging strategy to record cytosolic calcium transients of single sensory neurons in real time. Viability of analyzed neurons was determined after odor exposures by KCl-induced depolarization.
Confocal calcium imaging of olfactory sensory neurons in tissue slices. Recordings were performed as described (Spehr M, et al. (2006) Essential role of the main olfactory system in social recognition of major histocompatibility complex peptide ligands. J Neurosci 26(7):1961-1970) with the following modifications. For calcium sensitive dye loading, slices of olfactory epithelium were incubated (30 min, 4° C.) in HEPES solution (in mM: 145 NaCl, 5 KCl, 1 CaCl2, 1 MgCl2, 10 HEPES; pH=7.3) containing Fluo-4/AM (2 μM; Molecular Probes). Slices were transferred to a recording chamber (Slice Mini Chamber, Luigs & Neumann, Ratingen, Germany) and visualized using a Leica DM6000CFS confocal fixed stage upright microscope (Leica Microsystems, Mannheim, Germany) equipped with an apochromatic water immersion objective (HC X APO L20x/1.0 W) and infrared-optimized differential interference contrast (DIC) optics. Slices were anchored via stainless steel wires with 0.1 mm lycra threads and continuously superfused with HEPES-buffered solution. Changes in cytosolic calcium were monitored over time at 1.0 Hz frame rate. Stimulus application as well as solution exchange during inter-stimulus intervals was achieved by a custom-made, pressure-driven focal application device consisting of a software-controlled valve bank connected to a 7-in-1 ‘perfusion pencil’. Rhodamine application controlled for uniform flow and even stimulus application throughout the epithelial sensory surface. Offline analysis of time-lapse experiments was performed using LAS-AF software (Leica). All cells in a given field of view were marked as individual regions of interest (ROIs), and the relative fluorescence intensity for each ROI was calculated and processed as a function of time.

A further assay deals with T3, mouse TAAR4 (Mus musculus, UniProt Q5QD15).
T3 construct: Full Taar coding regions were cloned into pcDNA3.1-(Invitrogen); expressed in transfected cells; host or cells: HEK293
T3 sequence (Q5QD15 1-347): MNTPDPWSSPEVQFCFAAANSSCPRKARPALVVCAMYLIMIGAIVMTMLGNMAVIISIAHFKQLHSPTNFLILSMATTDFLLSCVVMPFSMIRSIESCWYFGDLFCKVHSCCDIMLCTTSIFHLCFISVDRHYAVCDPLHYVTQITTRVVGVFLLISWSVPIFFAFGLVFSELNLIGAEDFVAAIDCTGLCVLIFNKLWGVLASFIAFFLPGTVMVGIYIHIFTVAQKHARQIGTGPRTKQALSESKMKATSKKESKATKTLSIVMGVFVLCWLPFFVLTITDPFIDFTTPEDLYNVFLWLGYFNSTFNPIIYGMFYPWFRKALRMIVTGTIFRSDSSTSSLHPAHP
Description: TAAR4 CRE-SEAP reporter gene assay in transfected HEK293 cells. In kind it is cell-based. Particulars: concentration series of pure chemicals.

The target of a further assay is T4, mouse TAAR3 (Mus musculus, UniProt Q5QD16).
T4 construct: Full Taar coding regions were cloned into pcDNA3.1-(Invitrogen); expressed in transfected cells; host or cells: HEK293
T4 sequence (Q5QD16 1-343): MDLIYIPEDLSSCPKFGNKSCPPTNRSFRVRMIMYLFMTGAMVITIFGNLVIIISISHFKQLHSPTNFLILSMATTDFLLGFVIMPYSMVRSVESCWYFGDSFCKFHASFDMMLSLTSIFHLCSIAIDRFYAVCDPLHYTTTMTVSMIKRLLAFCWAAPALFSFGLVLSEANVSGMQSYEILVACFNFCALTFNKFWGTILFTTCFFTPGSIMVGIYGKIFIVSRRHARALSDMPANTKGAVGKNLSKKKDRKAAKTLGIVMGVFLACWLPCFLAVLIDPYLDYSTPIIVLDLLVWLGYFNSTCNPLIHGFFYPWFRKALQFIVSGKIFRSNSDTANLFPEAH
As to the kind of experiment: TAAR3 CRE-SEAP reporter gene assay in transfected HEK293 cells. In kind it is cell-based. On the procedure: Reporter gene assays were performed on HEK293 cells transfected with mouse TAAR3 and CRE-SEAP.
TAAR functional assays. Reporter gene assays were performed as described (Liberles S D & Buck LB (2006) A second class of chemosensory receptors in the olfactory epithelium. Nature 442(7103):645-650) with the following minor modifications. Test urines were diluted in serum-free media containing penicillin G (100 Units/ml, Invitrogen) and streptomycin sulfate ([…], Invitrogen). SEAP activity is measured as fluorescence resulting from dephosphorylation of a substrate, 4-methylumbelliferyl phosphate. Fluorescence values were obtained using an EnVision plate reader (Perkin Elmer) and are reported directly without normalization. All TAARs, except mouse TAAR3, were expressed as fusion proteins with an N-terminal sequence of bovine rhodopsin (Krautwurst D, Yau K W, & Reed R R (1998) Identification of ligands for olfactory receptors by functional expression of a receptor library. Cell 95(7):917-926).

The test system of assay [2] is corticosterone levels in rat plasma. Description: Plasma corticosterone assay after odor exposure. In kind it is in vivo. Particulars: 30 min exposure, 10% amine or 2% TMT, 1 ml, ±SEM. On the procedure: Avoidance to 2-phenylethylamine in rats was associated with acute changes in circulating levels of the stress hormone corticosterone.
Plasma corticosterone assay. […] Corticosterone levels were measured in duplicate using a competitive radioactive binding assay as described previously (Pryce C R, Bettschen D, Bahr N I, & Feldon J (2001) Comparison of the effects of infant handling, isolation, and nonhandling on acoustic startle, prepulse inhibition, locomotion, and HPA activity in the adult rat. Behav Neurosci 115(1):71-83).

The next assay deals with Sprague-Dawley rats. Description: Open field odor avoidance. Format: in vivo, rat. Particulars: ten minute exposure, 12 animals ±SEM; 1 ml urine or 5 μl amine. The method, then: We next examined behavioral responses of rodents to 2-phenylethylamine. […] Behaviors of rats in a square-shaped arena were recorded and analyzed following placement of test stimuli in a pseudorandom corner (FIG. 5A). […] Thus, 2-phenylethylamine, in the absence of other predator odor cues, was sufficient to evoke rat avoidance behavior.
Open field behavioral analysis. Rat behavioral responses to odors in the open field were measured as described previously (Fendt M (2006) Exposure to urine of canids and felids, but not of herbivores, induces defensive behavior in laboratory rats. Journal of chemical ecology 32(12):2617-2627) with the following modifications. Adult Sprague-Dawley rats (240-340 g; Janvier, Le Genest St. Isle, France) were placed in the center of a 45 cm×45 cm Plexiglass arena (TSE Systems, Bad Homburg, Germany) equipped with infrared sensors (distance 14 mm, illumination 80-120 lux). The arena contained glass dishes (36 mm) in each corner, with one dish containing test stimuli. Prior to testing, animals were habituated to the arena by introducing them for three consecutive days. […] Location of the rats was automatically recorded using the infrared detectors and analyzed (TSE Systems software). Statistical significance was measured using Wilcoxon Signed Test (**p<0.01; comparison with chance level (25%)). […]

Molecules are shown by their SMILES.

The values that follow come from US20140221499A1, “NOVEL RODENT CONTROL AGENTS AND USES THEREOF” (priority 2011, published 2014).

Description for mouse TAAR4: HEK293 cells were co-transfected with TAAR expression plasmids and a cAMPdependent reporter gene encoding secreted alkaline phosphatase (CRE-SEAP). Transfected cells were incubated with urine extracts from different mammalian species, and phosphatase activity was quantified with a fluorescent substrate as a reporter for TAAR activation.
Test urines were diluted in serum-free media containing penicillin G (100 Units/ml, Invitrogen) and streptomycin sulfate (100 mg/ml, Invitrogen). SEAP activity is measured as fluorescence resulting from dephosphorylation of a substrate, 4-methylumbelliferyl phosphate. Fluorescence values were obtained using an EnVision plate reader (Perkin Elmer) and are reported directly without normalization.

For the compound `CN1CCCCC1` [1-methylpiperidine], the EC50 on rTAAR8c amounted to 0.08 ± 0.02 µM; at rTAAR9, 18.3 ± 0.4 µM.
As to `NCc1ccccc1` [benzylamine, reference compound], the “carnivore odor-selective neurons activated by 2-phenylethylamine that also responded to benzylamine” value in assay [1] was 0/1268. For the same compound, the TAAR4 activation result at mouse TAAR4 is given as “did not similarly activate TAAR4”. This compound also showed an EC50 at mouse TAAR3 of roughly 200 µM. The “plasma levels of corticosterone” value in assay [2] turned out to be 130 ± 32 ng/mL. The “percentage of time rats are located in the odor quadrant” value in the assay on Sprague-Dawley rats came out at 29±7.2%.

A word on the EC50: it is the concentration that produces a half-maximal response. Low readings indicate greater potency, high ones weaker potency.
